Results as given in the supplement of paper PMC11061612.

What was measured:
Assay in all cases: combination Emax (second highest fraction inhibited in the dose matrix, 72 h); higher = more inhibition; extreme values may be limits of the assay
[1] = tested on: PANC-10-05 (Pancreatic Carcinoma)
How it was run: (§1)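 After 24 hours at 37°C and 5% CO2 in 1536-well plates, cells in DMEM/F12 or RPMI plus 10% FBS received two-drug dose matrices for 72 hours. Viability came from CellTiter-Glo 2.0 luminescence and was scaled as inhibition, anchored at 0 by vehicle wells and at 1 by blank wells. Combination Emax is taken as the second-highest inhibition in the matrix, and Bliss excess as the observed combination effect less EA + EB − EA·EB, with EA and EB the single-agent effects.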

[2] = tested on: ECC10 (Gastric Carcinoma)
How it was run: as §1

[3] = tested on: A3-KAW (B-Cell Non-Hodgkin's Lymphoma)
How it was run: as §1

NCI-H2591 (Mesothelioma) = tested on: NCI-H2591 (Mesothelioma)
How it was run: as §1

A498 (Kidney Carcinoma) = tested on: A498 (Kidney Carcinoma)
How it was run: as §1

[4] = tested on: NCI-H64 (Small Cell Lung Carcinoma)
How it was run: as §1

[5] = tested on: BICR22 (Oral Cavity Carcinoma)
How it was run: as §1

[6] = tested on: SK-MES-1 (Squamous Cell Lung Carcinoma)
How it was run: as §1

[7] = tested on: NCI-H2066 (Squamous Cell Lung Carcinoma)
How it was run: as §1

[8] = tested on: NCI-H1693 (Lung Adenocarcinoma)
How it was run: as §1

IGR-37 (Melanoma) = tested on: IGR-37 (Melanoma)
How it was run: as §1

[9] = tested on: COLO-320-HSR (Colorectal Carcinoma)
How it was run: as §1

ARH-77 (Non-Cancerous) = tested on: ARH-77 (Non-Cancerous)
How it was run: as §1

[10] = tested on: TT2609-C02 (Thyroid Gland Carcinoma)
How it was run: as §1

[11] = tested on: MDST8 (Colorectal Carcinoma)
How it was run: as §1

8-MG-BA (Glioblastoma) = tested on: 8-MG-BA (Glioblastoma)
How it was run: as §1

Hs-445 (Non-Cancerous) = tested on: Hs-445 (Non-Cancerous)
How it was run: as §1

[12] = tested on: KARPAS-422 (B-Cell Non-Hodgkin's Lymphoma)
How it was run: as §1

[13] = tested on: NCI-H2141 (Small Cell Lung Carcinoma)
How it was run: as §1

[14] = tested on: COR-L311 (Small Cell Lung Carcinoma)
How it was run: as §1

SMILES	combination Emax [1]	combination Emax [2]	combination Emax [3]	combination Emax (NCI-H2591 (Mesothelioma))	combination Emax (A498 (Kidney Carcinoma))	combination Emax [4]	combination Emax [5]	combination Emax [6]	combination Emax [7]	combination Emax [8]	combination Emax (IGR-37 (Melanoma))	combination Emax [9]	combination Emax (ARH-77 (Non-Cancerous))	combination Emax [10]	combination Emax [11]	combination Emax (8-MG-BA (Glioblastoma))	combination Emax (Hs-445 (Non-Cancerous))	combination Emax [12]	combination Emax [13]	combination Emax [14]
CC1(C)CCC(CN2CCN(c3ccc(C(=O)NS(=O)(=O)c4ccc(NCC5CCOCC5)c([N+](=O)[O-])c4)c(Oc4cnc5[nH]ccc5c4)c3)CC2)=C(c2ccc(Cl)cc2)C1 [Venetoclax] + C[C@@H]1COCCN1C2=NC(=NC(=C2)C3(CC3)[S@](=N)(=O)C)C4=C5C=CNC5=NC=C4 [AZD6738] (first compound max 1 µM, 7x7, partner max 10 µM)	0.53	0.98	1	0.329	0.514	0.882	0.768	0.75	0.384	0.372	0.793	0.561	0.961	0.317	0.777	0.792	0.99	0.956	0.637	0.694
CN(C)CCCOc1ccc(-c2ccc3ncc4c(c3c2)n(C2CCOCC2)c(=O)n4C)cn1 [AZD0156] + O=C(c1cc(Cc2n[nH]c(=O)c3ccccc23)ccc1F)N1CCN(C(=O)C2CC2)CC1 [Olaparib] (first compound max 3 µM, partner max 3 µM)	0.343	0.299	0.909	0.135	0.316	0.145	0.135	0.407	0.215	0.248	0.194	0.301	0.63	0.152	0.361	0.4	0.174	0.56	0.192	0.393
COc1cccc2c1C(=O)c1c(O)c3c(c(O)c1C2=O)C[C@@](O)(C(=O)CO)C[C@@H]3O[C@H]1C[C@H](N)[C@H](O)[C@H](C)O1 [Doxorubicin] + Cc1cc2ncnn2cc1Nc1ncc2c(n1)n(C1CCOCC1)c(=O)n2C [AZD7648] (first compound max 1 µM, 7x7, partner max 10 µM)	0.715	1	0.984	0.693	0.598	0.606	0.945	0.686	0.262	0.405	0.777	0.464	0.972	0.414	0.965	0.938	0.94	0.954	0.475	0.87
C[C@@H]1COCCN1c1cc(C2([S@](C)(=N)=O)CC2)nc(-c2ccnc3[nH]ccc23)n1 [AZD6738] + O=C(c1cc(Cc2n[nH]c(=O)c3ccccc23)ccc1F)N1CCN(C(=O)C2CC2)CC1 [Olaparib] (first compound max 10 µM, 7x7, partner max 10 µM)	0.486	0.54	0.984	0.348	0.636	0.692	0.711	0.696	0.388	0.298	0.738	0.475	0.911	0.316	0.677	0.85	0.835	0.556	0.51	0.509
CN(CCO)CC[C@H](CSc1ccccc1)Nc1ccc(S(=O)(=O)NC(=O)c2ccc(N3CCC([C@@H](O)c4ccccc4-c4ccc(Cl)cc4)CC3)cc2)cc1S(=O)(=O)C(F)(F)F [AZD4320] + Cn1cnc2c(F)c(Nc3ccc(Br)cc3Cl)c(C(=O)NOCCO)cc21 [Selumetinib] (first compound max 1 µM, 7x7, partner max 3 µM)	0.479	1	0.861	0.242	0.694	0.988	0.721	0.472	0.71	0.459	0.885	0.198	0.896	0.546	0.955	0.367	0.99	0.875	0.893	1
CC(=O)Nc1cccc(-n2c(=O)n(C3CC3)c(=O)c3c(Nc4ccc(I)cc4F)n(C)c(=O)c(C)c32)c1 [Trametinib] + Cc1nc(-c2cn3c(n2)-c2ccc(-c4cnn(C(C)(C)C(N)=O)c4)cc2OCC3)n(C(C)C)n1 [Taselisib] (first compound max 1 µM, 7x7, partner max 10 µM)	0.838	0.989	0.726	0.543	0.861	0.477	1	1	0.728	0.469	1	0.338	0.776	0.821	0.865	0.863	0.611	0.63	0.317	0.751
COc1nnc2ccc(N3CCC(c4ccc(OCCN5CCN(C)C(=O)[C@H]5C)cc4)CC3)nn12 [AZD5153] + CC1(C)CCC(CN2CCN(c3ccc(C(=O)NS(=O)(=O)c4ccc(NCC5CCOCC5)c([N+](=O)[O-])c4)c(Oc4cnc5[nH]ccc5c4)c3)CC2)=C(c2ccc(Cl)cc2)C1 [Venetoclax] (first compound max 1 µM, 7x7, partner max 1 µM)	0.474	0.985	1	0.331	0.439	0.226	0.235	0.472	0.338	0.514	0.65	0.442	0.861	0.376	0.324	0.707	0.724	0.948	0.262	0.934
CCc1c2c(nc3ccc(O)cc13)-c1cc3c(c(=O)n1C2)COC(=O)[C@]3(O)CC [SN-38] + CN(C)CCCOc1ccc(-c2ccc3ncc4c(c3c2)n(C2CCOCC2)c(=O)n4C)cn1 [AZD0156] (first compound max 0.3 µM, 7x7, partner max 1 µM)	0.73	0.945	1	0.65	0.5	0.407	0.907	0.804	0.154	0.474	0.826	0.284	0.992	0.441	0.802	0.975	0.993	0.937	0.451	0.821
Cn1cnc2c(F)c(Nc3ccc(Br)cc3Cl)c(C(=O)NOCCO)cc21 [Selumetinib] + C[C@@H]1COCCN1C2=NC(=NC(=C2)C3(CC3)[S@](=N)(=O)C)C4=C5C=CNC5=NC=C4 [AZD6738] (first compound max 10 µM, 7x7, partner max 10 µM)	0.613	0.443	1	0.339	0.57	0.808	0.722	0.687	0.43	0.364	0.864	0.371	0.946	0.506	0.784	0.792	0.755	0.519	0.409	0.32
Cn1cnc2c(F)c(Nc3ccc(Br)cc3Cl)c(C(=O)NOCCO)cc21 [Selumetinib] + C=CCn1c(=O)c2cnc(Nc3ccc(N4CCN(C)CC4)cc3)nc2n1-c1cccc(C(C)(C)O)n1 [AZD1775] (first compound max 10 µM, partner max 1 µM)	0.546	0.774	0.953	0.309	0.408	0.858	0.523	0.631	0.351	0.428	0.878	0.589	0.979	0.655	0.609	0.797	0.689	0.623	0.547	0.504
Cc1c2c(nn1C)CSCc1cc(n(C)n1)CSc1cc(c3ccccc3c1)OCCCc1c(C(=O)O)n(C)c3c-2c(Cl)ccc13 [AZD5991] + CN(C)CCCOc1ccc(-c2ccc3ncc4c(c3c2)n(C2CCOCC2)c(=O)n4C)cn1 [AZD0156] (first compound max 1 µM, 7x7, partner max 1 µM)	0.334	0.66	1	0.185	0.392	0.346	0.323	0.196	0.234	0.211	0.282	0.888	0.867	0.212	0.242	0.586	0.949	0.982	0.265	0.433
COc1cccc(OCCCN)c1-c1cc(Nc2cnc(C#N)cn2)n[nH]1 [Prexasertib] + Cc1cc2ncnn2cc1Nc1ncc2c(n1)n(C1CCOCC1)c(=O)n2C [AZD7648] (first compound max 1 µM, 7x7, partner max 10 µM)	0.522	0.671	1	0.415	0.642	0.846	0.761	0.804	0.437	0.483	0.923	0.669	0.994	0.276	0.943	0.951	0.954	0.908	0.57	0.789
